Test results as given in patent US11174251B2, “Compositions and methods for inhibition of the JAK pathway” (Rigel Pharmaceuticals, Inc., priority 2010, dated 2021).
pIC50: −log10 of the molar value. Where a name gives a salt, the structure may show the parent alone.

Biological target: T1, JAK3 (Homo sapiens, UniProt P52333)
T1 construct: The Ramos B-cell line was acquired from ATCC (ATCC Catalog No. CRL-1596); host or cells: Ramos B-cell line (human)
T1 sequence (P52333 1-1124): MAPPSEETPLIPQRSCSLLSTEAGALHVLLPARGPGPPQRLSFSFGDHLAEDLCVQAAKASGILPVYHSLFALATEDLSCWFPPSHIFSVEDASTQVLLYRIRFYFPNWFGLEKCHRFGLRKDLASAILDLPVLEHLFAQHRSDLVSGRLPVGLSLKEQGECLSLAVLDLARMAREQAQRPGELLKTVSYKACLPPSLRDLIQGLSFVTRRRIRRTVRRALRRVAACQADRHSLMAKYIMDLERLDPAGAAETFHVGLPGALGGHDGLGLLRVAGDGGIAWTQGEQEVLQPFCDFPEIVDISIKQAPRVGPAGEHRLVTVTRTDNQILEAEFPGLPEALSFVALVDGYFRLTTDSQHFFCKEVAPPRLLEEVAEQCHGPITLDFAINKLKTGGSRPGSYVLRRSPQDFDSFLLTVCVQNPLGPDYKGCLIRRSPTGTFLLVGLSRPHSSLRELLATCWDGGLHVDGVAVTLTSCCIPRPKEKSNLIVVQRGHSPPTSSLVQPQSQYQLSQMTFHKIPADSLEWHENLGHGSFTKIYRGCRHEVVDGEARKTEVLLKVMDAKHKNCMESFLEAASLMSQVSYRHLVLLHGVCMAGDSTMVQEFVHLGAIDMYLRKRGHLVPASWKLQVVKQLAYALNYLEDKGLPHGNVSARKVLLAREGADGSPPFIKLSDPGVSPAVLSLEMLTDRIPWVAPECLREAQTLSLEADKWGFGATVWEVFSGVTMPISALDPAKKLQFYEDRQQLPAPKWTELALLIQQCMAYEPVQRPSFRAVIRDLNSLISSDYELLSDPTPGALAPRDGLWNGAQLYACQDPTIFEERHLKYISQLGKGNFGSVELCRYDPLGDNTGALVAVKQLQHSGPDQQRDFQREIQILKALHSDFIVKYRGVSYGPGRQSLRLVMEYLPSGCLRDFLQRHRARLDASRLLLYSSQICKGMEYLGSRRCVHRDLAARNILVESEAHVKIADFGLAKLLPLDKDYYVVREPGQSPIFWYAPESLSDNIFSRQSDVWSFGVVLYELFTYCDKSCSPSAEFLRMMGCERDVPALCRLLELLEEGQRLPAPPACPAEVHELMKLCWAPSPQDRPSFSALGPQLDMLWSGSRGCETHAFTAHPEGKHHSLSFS
Assay: Assay for CD23 expression on Ramos B-cells stimulated by IL-4 (Table IV: ability to inhibit JAK3 activity)
Type: cell-based
Settings: tested under conditions described in Example 3 (so in the source)
Summary of the method: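 IL-4-induced CD23 surface expression on human Ramos B cells, detected by flow cytometry after 20–24 h stimulation (IL-4 final 50 units/mL). Compound or DMSO added 1 h beforehand at 37 °C; cells kept in RPMI with 5% serum.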

| pIC50 | Compound |
| --- | --- |
| > 6.30 | O=C1CCc2cc(Nc3ncc(F)c(Nc4ccc5oc(=O)[nH]c5c4)n3)ccc2N1 [II-26, 6-(4-(2,3-dihydro-2-oxobenzo[d]oxazol-5-ylamino)-5-fluoropyrimidin-2-ylamino)-3,4-dihydroquinolin-2(1H)-one trifluoroacetate salt] |
| > 6.30 | O=C1CCCc2cc(Nc3ncc(F)c(Nc4ccc5oc(=O)[nH]c5c4)n3)ccc2N1 [II-27, 7-(4-(2,3-dihydro-2-oxobenzo[d]oxazol-5-ylamino)-5-fluoropyrimidin-2-ylamino)-4,5-dihydro-1H-benzo[b]azepin-2(3H)-one trifluoroacetate salt] |
| > 6.30 | CN1C(=O)CCCc2cc(Nc3ncc(F)c(Nc4ccc5oc(=O)[nH]c5c4)n3)ccc21 [II-28, 7-(4-(2,3-dihydro-2-oxobenzo[d]oxazol-5-ylamino)-5-fluoropyrimidin-2-ylamino)-4,5-dihydro-1-methyl-1H-benzo[b]azepin-2(3H)-one trifluoroacetate salt] |

The next lines start with the compound.

| Compound | pIC50 |
| --- | --- |
| O=C1NCC=Cc2cc(Nc3ncc(F)c(Nc4ccc5oc(=O)[nH]c5c4)n3)ccc21 [II-23, 5-(5-fluoro-2-(1-oxo-2,3-dihydro-1H-benzo[c]azepin-7-ylamino)pyrimidin-4-ylamino)benzo[d]oxazol-2(3H)-one formate salt] | > 6.30 |
| O=C1COc2cc(Nc3ncc(F)c(Nc4ccc5oc(=O)[nH]c5c4)n3)ccc2N1 [II-25, 7-(4-(2,3-dihydro-2-oxobenzo[d]oxazol-5-ylamino)-5-fluoropyrimidin-2-ylamino)-2H-benzo[b][1,4]oxazin-3(4H)-one formate salt] | > 6.30 |
